Assay results from ChEMBL document CHEMBL1158881, “Puupehenone congeners from an indo-pacific hyrtios sponge” (J Nat Prod, 2003).
Active and inactive are the calls of the source.

Assays:
Type in all cases: functional, cell-based
[1] = test system: L1210; assay: Cytotoxicity against mouse L1210 cells by Valeriote soft agar disk diffusion assay
[2] = test system: MC-38; assay: Cytotoxicity against mouse Colon 38 cells by Valeriote soft agar disk diffusion assay
[3] = test system: H116; assay: Cytotoxicity against human H116 cells by Valeriote soft agar disk diffusion assay

Measured: Activity

COc1cc2c(cc1O)O[C@@]1(C)CC[C@H]3C(C)(C)CCC[C@]3(C)[C@H]1[C@@H]2OC
inactive: all assays above

COc1cc2c(cc1O)O[C@@]1(C)CC[C@H]3C(C)(C)CCC[C@]3(C)C1=C2
inactive: all assays above

COC1=CC2=C[C@@H]3[C@@]4(C)CCCC(C)(C)[C@@H]4CC[C@]3(C)OC2=CC1=O
inactive: all assays above
